Like-named read-outs stand apart in the source and are kept apart here.
Columns and labels:
[1] = system: Mia-Paca-2 pancreatic cancer cells; assay: WST-1 cell viability assay; assay type: cell-based; details: Mia-Paca-2 pancreatic cells
Description: (§1) Compound Compound 9A was tested for the ability to inhibit the proliferation of Mia-Paca-2 pancreatic cancer cells. Mia-Paca-2 and MDA-MB-231 cells were seeded into the wells of a 96 well tissue culture plate in complete medium (10% fetal calf serum) and incubated overnight at 37° C./5% CO2). The medium was exchanged for fresh medium containing varying concentrations of Compound 9A and the plate was incubated for 72 hours at 37° C./5% CO2. The viability of cells at the end of this incubation was assessed with the WST-1 reagent. To 10 ml of warm (37° C.) complete medium, 1 ml WST-1 reagent was added. The medium from the wells of the plate with the Mia-Paca-2 cells was removed and replaced with 100 μL of the WST-1 reagent in complete medium. The plate was incubated at 37 37° C./5% CO2. At timed intervals the absorbance at 450 nm was determined for each well in a UVNis plate reader. For each well the slope of the plot of the absorbance 450 nm vs time was determined. The readings were normalized to that of the wells for the untreated control and a dose-response curve was plotted. A fit to the data was made from a four parameter, variable slope program (GraphPad Prism) and the IC50 was determined.
The same procedures were also applied to the compounds Compound 7A, Compound 6A, and Compound 8A to test their inhibitory activities against RKO colon, Mia-Paca-2 pancreatic and BT-549 cancer cells.

[2] = system: SK-BR3 breast cancer cells; assay: WST-1 cell viability assay; assay type: cell-based; details: Homo sapiens, SK-BR-3, 72-hour treatment, read-out: IC50, inhibiting proliferation
Description: as §1
Another substrate of USP9X is the receptor tyrosine kinase erbB2. […] The breast cancer cell line SK-BR3 expresses high levels of erbB2. […]

U937 cells = assay: WST-1 cell viability assay; assay type: cell-based; details: for IC50: Homo sapiens, U-937, 72-hour treatment
Description: as §1
The effect of Compound 7A on U937 cells was assessed using the same experiment described in the Inhibitory Activities against the Proliferation of Mia-Paca-2 and Other Cancer Cells section above. In response to treatment with Compound 7A, proliferation of U937 leukemia cells was inhibited and induced apoptosis was obsessed by trypan blue staining.
U937 cells were treated with the Bcl-2/Bcl-xL inhibitor ABT737 72 hours at varying concentrations and underwent western blot analysis.

Mcl-1 = assay: Capture ELISA of Mcl-1 and ubiquitylated Mcl-1 in MIA-PaCa-2 cells; assay type: cell-based, human; details: 24 hours
Description: MIA-PaCa-2 cells were treated with Compound 7A at 25 μM, 12.5 μM, 6.25 μM, and 3.125 μM, respectively, for 24 hours. Capture ELISA of Mcl-1 was performed using a dilution series of MIA-PaCa-2 cell lysates equalized for total protein in a 96-well plate coated with sheep anti-human Mcl-1 (R&D Systems, #AF8281). Detection of Mcl-1 was performed using biotinylated sheep anti-human Mcl-1 followed by streptavidin-horseradish peroxidase and TMB development. For detection of ubiquitylated Mcl-1 the same capture conditions were used but employing a biotinylated mouse anti-human ubiquitin antibody (R&D Systems, #MAB701), again detecting with streptavidin-horseradish peroxidase and TMB development. Lysate samples were run in triplicate and percentages were calculated based on the signal generated from cell lysates with no compound added (vehicle control samples). […] With 12.5 μM Compound 7A, Mcl-1 declined by about 25.0% whereas ubiquitylated Mcl-1 increased by about 14.0%.

IC50 [2]: 2700 nM
IC50 (U937 cells; read-out: IC50 for the inhibition of U937): 270 nM
IC50 (U937 cells; U937 cells, single agent, read-out: IC50, cell viability): 270 nM
Compound: CN1CCOc2ccc(cc2)C(=O)NCc2ccc(F)c(c2)C(=O)N[C@@H](CC(C)(C)C)C(=O)Nc2ccc(cc2)CCN(C)C(=O)CC(C)(C)CC1=O [Compound 7A]
cell viability [1]: significant decreases
enhancement in ABT737's potency / sensitivity of cells to ABT737 (U937 cells; U937 cells, co-treatment of 0.5 μM Compound 7A): 57 fold
cell viability decreased to (U937 cells; U937 cells, when Mcl-1 level decreased by 50%): 0
Mcl-1 decline (Mcl-1; 12.5 μM): about 25.0%
ubiquitylated Mcl-1 increase (Mcl-1; 12.5 μM): about 14.0%
Mcl-1 decline (Mcl-1; 25 μM): about 23.0%
ubiquitylated Mcl-1 increase (Mcl-1; 25 μM): about 27.5%

Reference: US20240294467A1, “USP9X Inhibitors” (ProDeg, LLC, priority 2021, published 2024)
